{"source": "paper PMC5118709", "about": "“Identification of Polo-like kinase 1 interaction inhibitors using a novel cell-based assay” (Scientific Reports, 2016)", "key": {"HeLa cells": {"test_system": "HeLa cells", "test": "mitotic defect phenotypes by immunofluorescence", "assay_type": "cell-based", "conditions": "10 μM, 7 h", "procedure,_shortened": "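HeLa cells on poly-L-lysine coverslips treated 7 h, fixed in 4% formaldehyde/PHEM at 37 °C. Immunostained for pericentrin and α-tubulin with DAPI for DNA; spindle organisation scored by fluorescence microscopy against DMSO controls.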"}, "PBD of Plk1": {"biological_target": "PBD of Plk1 (Homo sapiens, UniProt P53350)", "sequence (P53350 367-603 limits assumed)": "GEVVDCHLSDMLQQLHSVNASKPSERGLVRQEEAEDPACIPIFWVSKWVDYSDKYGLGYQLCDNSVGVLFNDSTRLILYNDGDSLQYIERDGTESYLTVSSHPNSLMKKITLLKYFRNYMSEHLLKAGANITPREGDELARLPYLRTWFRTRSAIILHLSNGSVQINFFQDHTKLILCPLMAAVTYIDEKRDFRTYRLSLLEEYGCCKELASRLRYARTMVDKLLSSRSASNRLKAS", "test": "fluorescence polarization assay PBD-Map peptide", "assay_type": "binding", "description": "The FP buffer was composed of 10 mM Tris pH 8.0, 50 mM NaCl, 1 mM EDTA, 20% glycerol and 0.1% NP-40. The peptide (final concentration 10 nM) was always added to the wells of non-binding, black, 384-well plates, 1 hour after the addition of the protein with the buffer (+/− treatment, 10% DMSO). […] EC65s were used to perform the competitive assays with the non-labeled peptides and with the inhibitors. FP Inhibition was calculated with the formula: 100 − [((mPsample − mPfree peptide)\\(mPDMSO − mPfree peptide)) × 100]. […] (Map peptide), and corresponding non-labeled peptides are identical but without FITC in N-terminal. […] Inhibition curves were fitted with GraphPad (Prism software)."}, "PBD": {"test_system": "PBD", "parameters": "method as in PMID 19033445", "conditions": "cited from earlier work"}, "mitosis": {"test_system": "mitosis", "conditions": "cited from earlier work"}, "Plk1-Map interaction": {"biological_target": "Plk1-Map interaction (Homo sapiens, UniProt P53350)", "sequence (P53350 whole entry)": "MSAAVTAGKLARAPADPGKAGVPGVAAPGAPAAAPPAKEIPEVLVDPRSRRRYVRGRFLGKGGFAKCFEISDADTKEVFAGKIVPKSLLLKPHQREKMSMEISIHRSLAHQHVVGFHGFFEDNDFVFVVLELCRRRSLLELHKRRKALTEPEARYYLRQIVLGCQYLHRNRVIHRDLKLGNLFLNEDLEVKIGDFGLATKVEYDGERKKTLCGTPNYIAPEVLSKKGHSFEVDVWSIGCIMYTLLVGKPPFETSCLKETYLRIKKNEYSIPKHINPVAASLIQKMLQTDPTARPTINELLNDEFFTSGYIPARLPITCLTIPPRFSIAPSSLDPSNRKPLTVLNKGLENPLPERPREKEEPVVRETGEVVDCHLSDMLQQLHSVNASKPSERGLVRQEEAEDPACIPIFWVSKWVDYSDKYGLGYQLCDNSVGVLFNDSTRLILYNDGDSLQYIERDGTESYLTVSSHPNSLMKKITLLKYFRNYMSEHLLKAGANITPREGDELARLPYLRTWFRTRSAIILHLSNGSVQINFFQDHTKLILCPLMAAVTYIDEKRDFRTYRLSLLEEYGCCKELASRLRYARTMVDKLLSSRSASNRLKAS", "test": "LUMIER co-immunoprecipitation assay Plk1-Map", "method": "After cell lysis, GFP-Plk1 was immunoprecipitated and co-purified Map-Luc was measured by luminescence following addition of the luciferase substrate, coelenterazine.\nHalf a million stably transfected Map205-RLucII/GFP10-Plk1 cells in Tyrode solution were seeded per well in a 96-well plate and allowed to settle for 30 min at 37 °C. […] Plates were then centrifuged at 4 °C at 3000 rpm for 5 minutes to pellet cells. Cells were then lysed with the IP buffer (20 mM Tris pH 7.5, 150 mM NaCl, 2 mM EGTA, 0.5% NP-40, 1 mM DTT, PMSF, aprotinin and leupeptin) and incubated on ice for 20 minutes. Plates were centrifuged again at 4 °C at 3400 rpm for 10 minutes, and the soluble fraction was transferred into a new 96-well plate. Note that 10 μl of this fraction was transferred in white 96-well plates from which the luminescence was read as a measure of the input amount of cell lysate for the co-IP. GFP-Plk1 was immunoprecipitated by adding 0.35 μl of anti-GFP antibody (Invitrogen). Plates were sealed and incubated on a rotator at 4 °C for 30 minutes. Then, 4 μl of pre-washed protein A magnetic beads (Invitrogen) were added to each well. Plates were sealed and incubated at 4 °C for 1h30. The extracts + beads were then transferred in a 96-well PCR plates and beads were washed 3 times with the IP buffer using a magnetic 96-well rack. The fourth wash was done in Tyrode solution, then beads were re-suspended with it and transferred in a white 96-well plate. […] Tyrode was also added to the plates containing the input fraction, then Coelenterazine h was added to the wells, and enhanced luminescence was read as described above."}, "GST-PBD367-603 of Plk1": {"biological_target": "GST-PBD367-603 of Plk1 (Homo sapiens, UniProt P53350)", "sequence (P53350 367-603)": "as the sequence (P53350 367-603 limits assumed) above", "test": "fluorescence polarization assay PBD-phosphopeptide", "conditions": "IC50 in FP, GST-PBD367-603 38 nM, 1 h pre-incubation, FITC-phosphopeptide 10 nM, Fig. 4C", "from_the_text": "In this assay, an optimal phosphopeptide for PBD binding is coupled with a FITC fluorophore and its binding to purified recombinant PBD of Plk1 is monitored by the change in polarization of incident light."}}, "note": "Where “and” joins values, the source holds several entries; their conditions need not be identical. Equal entries are not always repeated."}
{"smiles": "O=c1c(O)cccc2cc(O)c(O)c(O)c12", "note": "[PPG, purpurogallin, reference compound]", "values": [{"measurement": "2 > pericentrin foci (percentage of cells)", "setting": "HeLa cells", "result": "7 ± 4", "unit": "%"}, {"measurement": "Disorganized spindles (percentage of cells)", "setting": "HeLa cells", "result": "41 ± 6", "unit": "%"}, {"measurement": "disruption of the PBD-Map interaction in FP", "setting": "PBD of Plk1", "result": "disrupted the PBD-Map interaction"}, {"measurement": "concentrations active in vitro", "setting": "PBD", "result": "low micromolar concentrations"}, {"measurement": "concentrations impacting mitosis", "setting": "mitosis", "result": "high micromolar concentrations"}, {"measurement": "Average-Beads (mean luminescence)", "setting": "Plk1-Map interaction; 10-25 μM, 2 h", "result": "301,042"}, {"measurement": "Relative Luminescence Unit", "setting": "Plk1-Map interaction; mean divided by maximum mean of the compounds", "result": 0.351}, {"measurement": "Luminescence on beads, duplicate wells", "setting": "Plk1-Map interaction; raw data, 10-25 μM, 2 h", "result": "290,044 and 312,040"}, {"measurement": "IC50", "setting": "GST-PBD367-603 of Plk1", "result": 126, "unit": "µM"}]}
